# Measurements published in patent US20020013350A1 (priority 1998, published 2002).
# Tested on: cabbage black rot bacterium (Xanthomonas campestris)
# Assay: Control test on cabbage black rot
# Type: in vivo
# Conditions: 350 ppm, cabbage sprayed four times at intervals of 7 days
# Source text: Two days after the second spraying, the cabbage was inoculated with an aqueous suspension of cabbage black rot bacterium (Xanthomonas campestris) by the method of spraying. Two weeks after the final spraying, the cabbage was investigated to calculated the degree of disease occurrence according to the following criterion. In the untreated plot, the degree of disease occurrence was 44.7.
# Degree of disease occurrence=Σ(Number of hills at every degree of occurrence)×100÷(Number of hills investigated×3)
# From the degree of disease occurrence, controlling degree was calculated according to the following equation. […] [formula]
structure (smiles),measurement,value
"Oc1cccc2cccnc12.[Cu] [8-Hydroxyquinoline-copper, 8-Hydroxyquinoline copper]",Controlling degreee (%),59%
same,Degree of disease occurrence,18.2
same,Percentage of diseased hills (%),54.5%
